Key:
Experiment in all cases: relative viability (nuclei count vs DMSO), 5 days (fraction); higher = more cells survive
Bemcentinib + Trametinib = compound: Nc1nc(Nc2ccc3c(c2)CC[C@@H](N2CCCC2)CC3)nn1-c1cc2c(nn1)-c1ccccc1CCC2 [Bemcentinib] + CC(=O)Nc1cccc(-n2c(=O)n(C3CC3)c(=O)c3c(Nc4ccc(I)cc4F)n(C)c(=O)c(C)c32)c1 [Trametinib] (partner 0.02 µM)
Procedure, shortened: (§1)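 Lung cancer cell lines in 1536-well plates got either a single drug or a fixed anchor-drug dose together with five library-drug doses (not always all listed) in √10 steps, by pin tool, on the day after seeding. Nuclei were counted after 5 days, and relative viability is the treated-to-vehicle ratio of nuclei counts. Values are medians of duplicate plates.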

[1] = compound: CC1=CC=C(C=C1)C(=O)CN2C3=C(CCCC3)SC2=N [Pifithrin_alpha] + O=C(c1cc(Cc2n[nH]c(=O)c3ccccc23)ccc1F)N1CCN(C(=O)C2CC2)CC1 [Olaparib] (partner 8 µM)
Procedure, shortened: as §1

Axitinib + Pictilisib = compound: CNC(=O)c1ccccc1Sc1ccc2c(/C=C/c3ccccn3)n[nH]c2c1 [Axitinib] + CS(=O)(=O)N1CCN(Cc2cc3nc(-c4cccc5[nH]ncc45)nc(N4CCOCC4)c3s2)CC1 [Pictilisib] (partner 1 µM)
Procedure, shortened: as §1

Axitinib + Pemetrexed = compound: CNC(=O)c1ccccc1Sc1ccc2c(/C=C/c3ccccn3)n[nH]c2c1 [Axitinib] + Nc1nc2[nH]cc(CCc3ccc(C(=O)N[C@@H](CCC(=O)O)C(=O)O)cc3)c2c(=O)[nH]1 [Pemetrexed] (partner 0.2 µM)
Procedure, shortened: as §1

| Cell Line | relative viability (Bemcentinib + Trametinib; first compound 0.04 µM) | relative viability (Bemcentinib + Trametinib; first compound 0.1265 µM) | relative viability (Bemcentinib + Trametinib; first compound 0.4 µM) | relative viability (Bemcentinib + Trametinib; first compound 1.265 µM) | relative viability (Bemcentinib + Trametinib; first compound 4 µM) | relative viability ([1]; first compound 3.162 µM) | relative viability ([1]; first compound 10 µM) | relative viability ([1]; first compound 31.62 µM) | relative viability ([1]; first compound 100 µM) | relative viability (Axitinib + Pictilisib; first compound 0.005 µM) | relative viability (Axitinib + Pictilisib; first compound 0.01581 µM) | relative viability (Axitinib + Pictilisib; first compound 0.05 µM) | relative viability (Axitinib + Pictilisib; first compound 0.1581 µM) | relative viability (Axitinib + Pictilisib; first compound 0.5 µM) | relative viability (Axitinib + Pemetrexed; first compound 0.005 µM) | relative viability (Axitinib + Pemetrexed; first compound 0.01581 µM) | relative viability (Axitinib + Pemetrexed; first compound 0.05 µM) | relative viability (Axitinib + Pemetrexed; first compound 0.1581 µM) | relative viability (Axitinib + Pemetrexed; first compound 0.5 µM) | relative viability ([1]; first compound 1 µM) |
| --- | --- | --- | --- | --- | --- | --- | --- | --- | --- | --- | --- | --- | --- | --- | --- | --- | --- | --- | --- | --- |
| NCI-H2405 | 0.6 | 0.732 | 0.621 | 0.7 | 0.722 | 0.775 | 0.725 | 0.51 | 0.644 | 0.422 | 0.534 | 0.658 | 0.465 | 0.383 | 0.93 | 1.28 | 1.22 | 1.02 | 1.15 |  |
| UMC-11 | 0.558 | 0.876 | 0.712 | 0.779 | 0.744 | 0.365 | 1.09 | 0.402 | 0.249 | 0.818 | 0.82 | 0.857 | 0.835 | 0.627 | 0.774 | 0.81 | 0.77 | 0.867 | 0.81 | 0.367 |
| PC-14 | 0.857 | 0.783 | 0.947 | 0.879 | 0.892 | 0.319 | 0.218 | 0.188 | 0.111 | 0.919 | 0.699 | 0.676 | 0.731 | 0.834 | 0.135 | 0.114 | 0.158 | 0.137 | 0.142 | 0.253 |
| HCC-78 | 0.735 | 0.746 | 0.936 | 0.809 | 0.801 | 0.925 | 0.785 | 0.51 | 0.683 | 0.207 | 0.257 | 0.238 | 0.229 | 0.218 | 0.919 | 0.941 | 0.933 | 0.974 | 0.962 |  |
| A-427 | 0.711 | 0.696 | 0.812 | 0.773 | 0.668 | 0.623 | 0.574 | 0.339 | 0.493 | 0.672 | 0.496 | 0.77 | 0.705 | 0.679 | 1.11 | 1.1 | 1.01 | 0.954 | 1.14 | 0.676 |
| HCC-827 | 0.545 | 0.548 | 0.534 | 0.599 | 0.586 | 0.672 | 0.715 | 0.355 | 0.648 | 0.911 | 1.04 | 0.947 | 1.08 | 0.889 | 0.228 | 0.158 | 0.279 | 0.296 | 0.275 | 0.248 |
| EPLC-272H | 0.268 | 0.287 | 0.329 | 0.289 | 0.295 | 0.585 | 0.72 | 0.425 | 0.467 | 0.317 | 0.289 | 0.391 | 0.272 | 0.313 | 0.333 | 0.341 | 0.302 | 0.381 | 0.336 | 0.762 |
| SK-MES-1 | 0.625 | 0.587 | 0.561 | 0.587 | 0.61 | 0.493 | 0.292 | 0.241 | 0.373 | 0.303 | 0.391 | 0.337 | 0.409 | 0.481 | 0.949 | 1.03 | 1.02 | 1.04 | 1.04 | 0.479 |

From the supplement of paper PMC10307832
